Reference: patent US10874743B2, “IRAK degraders and uses thereof” (Kymera Therapeutics, Inc., priority 2017, dated 2020)

Columns and labels:
OCI-LY10 cells = assay: OCI-LY-10 CTG cell viability assay (EC50); assay type: cell-based; details: Homo sapiens, 96 h, CellTiter-Glo cell viability, 4 days incubation, top concentration 10 μM, read-out: OCI-LY10 IRAK4 EC50
Protocol: A CTG cell viability assay using OCI-LY-10 cells was run to determine compound-mediated cell viability (EC50).
Compound-mediated viability effect on OCI-LY10 was quantitatively determined using the CellTiter-Glo® Luminescent Cell Viability Assay kit from Promega (Catalog number G7570) following manufacturer's recommended procedures. […] Compounds were then added to the assay plate with final top concentration of 10 μM and 1:3 dilution series with total of 9 doses. The final DMSO concentration was normalized to 0.2%. The assay plates were incubated at 37° C. for 4 days under 5% CO2. Then the assay plate was equilibrated at room temperature for 10 minutes. […] The data was then analyzed by software Prism 7.0 from GraphPad and the dose response curves were fit using a three-parameter logistic equation to calculate EC50.

IRAK4 = target: T1, IRAK4 (Homo sapiens, UniProt Q9NWZ3); assay: OCI-LY-10 MSD assay for IRAK4 DC50; assay type: cell-based; parameters: endogenous in cells; host or cells: OCI-LY10; details: OCI-LY10 cells, 4 hr incubation, concentration required to degrade 50% of protein
T1 sequence (Q9NWZ3 1-460): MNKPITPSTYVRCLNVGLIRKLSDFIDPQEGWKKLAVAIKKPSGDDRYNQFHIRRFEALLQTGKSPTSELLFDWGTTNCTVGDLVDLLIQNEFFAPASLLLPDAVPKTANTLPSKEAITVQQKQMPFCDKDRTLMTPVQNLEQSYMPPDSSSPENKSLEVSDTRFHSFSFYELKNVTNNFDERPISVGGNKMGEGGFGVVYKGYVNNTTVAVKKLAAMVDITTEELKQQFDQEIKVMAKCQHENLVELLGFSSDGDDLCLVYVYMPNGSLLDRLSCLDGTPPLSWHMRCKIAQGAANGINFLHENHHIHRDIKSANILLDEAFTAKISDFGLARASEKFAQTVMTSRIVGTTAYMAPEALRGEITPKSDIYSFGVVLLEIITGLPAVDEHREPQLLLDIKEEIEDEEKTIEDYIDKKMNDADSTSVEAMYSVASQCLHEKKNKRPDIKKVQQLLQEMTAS
Summary of the method: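 IRAK4 level was quantified by MSD electrochemiluminescence (anti-IRAK4 capture antibody, rabbit anti-IRAK4 detection antibody) in RIPA lysates of OCI-Ly10 cells. Cells had been treated with compound for 4 hr (8-point, 3-fold serial dilution). Remaining protein versus concentration was fitted to a sigmoidal curve to give DC50.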

Row | Structure (SMILES) | EC50 (OCI-LY10 cells) [nM] | DC50 (IRAK4) [nM]
1 | Cc1ncsc1-c1ccc(CNC(=O)[C@@H]2C[C@@H](O)CN2C(=O)[C@@H](NC(=O)COCCOCCOCCOCCOCC(=O)N2CCN(c3ccn4ncc(C(=O)Nc5cn(C)nc5C(F)F)c4n3)CC2)C(C)(C)C)cc1 [I-484] | > 1000 | 
2 | Cc1ncsc1-c1ccc(CNC(=O)[C@@H]2C[C@@H](O)CN2C(=O)[C@@H](NC(=O)COCCOCCOCC(=O)N2CCN(c3ccn4ncc(C(=O)Nc5cn(C)nc5C(F)F)c4n3)CC2)C(C)(C)C)cc1 [I-485] | > 1000 | 
3 | CN(CCCOCCCc1ccc2c(c1)n(C)c(=O)n2C1CCC(=O)NC1=O)C(=O)c1ccc(-n2cc(NC(=O)c3coc(-c4ccnc(NCC(F)(F)F)c4)n3)c(C(N)=O)n2)cc1 (stereo not drawn) [I-494] | > 1000 | 
4 | Cc1ncsc1-c1ccc(CNC(=O)[C@@H]2C[C@@H](O)CN2C(=O)[C@@H](NCCOCCOCCOCCNCc2nn(C)cc2NC(=O)c2coc(-c3ccnc(NCC(F)(F)F)c3)n2)C(C)(C)C)cc1 [I-524] | > 1000 | 
5 | CN(CC(=O)N(C)CC(=O)N(C)CC(=O)N(C)CCCc1ccc2c(c1)n(C)c(=O)n2C1CCC(=O)NC1=O)Cc1ccc(-n2cc(NC(=O)c3coc(-c4ccnc(NCC(F)(F)F)c4)n3)c(C(N)=O)n2)cc1 (stereo not drawn) [I-526] | > 1000 | 
6 | Cn1c(=O)n(C2CCC(=O)NC2=O)c2cccc(CCCOCCOCCNCc3ccc(-n4cc(NC(=O)c5cc(C#N)ccn5)c(C(N)=O)n4)cc3)c21 (stereo not drawn) [I-527] | > 1000 | 
7 | Cn1c(=O)n(C2CCC(=O)NC2=O)c2cccc(CCCOCCOCCNCc3ccc(-n4cc5c(n4)CCCN5C(=O)c4coc(-c5ccnc(NCC(F)(F)F)c5)n4)cc3)c21 (stereo not drawn) [I-528] | > 1000 | 
8 | N#Cc1nn(-c2ccc(CNCCOCCOCCCc3ccc4c(c3)oc(=O)n4C3CCC(=O)NC3=O)cc2)cc1NC(=O)c1coc(-c2ccnc(NCC3CC3)c2)n1 (stereo not drawn) [I-538] | > 1000 | 
9 | Cn1cc(NC(=O)c2coc(-c3ccnc(NCC(F)(F)F)c3)n2)c(-c2cncc(CNCCOCCOCCCc3cccc4c3n(C)c(=O)n4C3CCC(=O)NC3=O)c2)n1 (stereo not drawn) [I-541] | > 1000 | 
10 | CN1C(=O)CCC(n2c(=O)n(C)c3c(CCCOCCOCCNCc4ccc(-n5cc(NC(=O)c6coc(-c7ccnc(NCC(F)(F)F)c7)n6)c(C(N)=O)n5)cc4)cccc32)C1=O (stereo not drawn) [I-544] | > 1000 | 
11 | CN(C)CCNC(=O)c1nn(-c2ccc(CNCCCCOCCCCc3ccc4c(c3)n(C)c(=O)n4C3CCC(=O)NC3=O)cc2)cc1NC(=O)c1coc(-c2ccnc(NCC(F)(F)F)c2)n1 (stereo not drawn) [I-560] | > 1000 | 
12 | Cn1c(=O)n(C2CCC(=O)NC2=O)c2ccc(CNC(=O)OCCCNCc3ccc(-n4cc(NC(=O)c5coc(-c6ccnc(NCC(F)(F)F)c6)n5)c(C(N)=O)n4)cc3)cc21 (stereo not drawn) [I-563] | > 1000 | 
13 | Cn1c(=O)n(C2CCC(=O)NC2=O)c2ccc(CCCN3CCO[C@H](CNCc4ccc(-n5cc(NC(=O)c6coc(-c7ccnc(NCC8CC8)c7)n6)c(C(F)F)n5)cc4)C3)cc21 (stereo partly drawn) [I-573] | > 1000 | 
14 | CN1C(=O)CCC(n2c(=O)n(C)c3c(CCCOCCOCCNCc4ccc(-n5cc(NC(=O)c6coc(-c7ccnc(NCC8CC8)c7)n6)c(C(F)F)n5)cc4)cccc32)C1=O (stereo not drawn) [I-596] | > 1000 | 
15 | Cn1c(=O)n(C2CCC(=O)NC2=O)c2cccc(C#CCOCCOCCn3cc4cc(NC(=O)c5cccc(C(F)(F)F)n5)c(C(C)(C)O)cc4n3)c21 (stereo not drawn) [I-688, N-[2-[2-[2-[3-[1-(2,6-dioxo-3-piperidyl)-3-methyl-2-oxo-benzimidazol-4-yl]prop-2-ynoxy]ethoxy]ethyl]-6-(1-hydroxy-1-methyl-ethyl)indazol-5-yl]-6-(trifluoromethyl)pyridine-2-carboxamide] | > 1000 | 
16 | Cn1ncc2nc(Nc3cnn(CCOCCOCCOCCNc4cccc5c4C(=O)N(C4CCC(=O)NC4=O)C5=O)c3)nc(NC3CCC(N4CCOCC4)CC3)c21 (stereo not drawn) [I-691] | > 1000 | 

Next, values leading:

Row | EC50 (OCI-LY10 cells) [nM] | DC50 (IRAK4) [nM] | Structure (SMILES)
17 | < 50 | 100 to 500 | Cn1c(=O)n([C@H]2CCC(=O)NC2=O)c2ccc(CCCCOCCCCNCc3ccc(-n4cc(NC(=O)c5coc(-c6ccnc(NCC7CC7)c6)n5)c(C(F)F)n4)cc3)cc21 (single isomer, unassigned) [I-699]
18 | 50 to 100 | < 50 | Cn1c(=O)n([C@@H]2CCC(=O)NC2=O)c2ccc(CCCCOCCCCNCc3ccc(-n4cc(NC(=O)c5coc(-c6ccnc(NCC7CC7)c6)n5)c(C(F)F)n4)cc3)cc21 (single isomer, unassigned) [I-700]
19 | > 1000 | > 1000 | Cn1cc(NC(=O)c2coc(-c3ccnc(NCC(F)(F)F)c3)n2)c(C(=O)NCCOCCOCCOCCOCCOCCNc2cccc3c2C(=O)N(C2CCC(=O)NC2=O)C3=O)n1 (stereo not drawn) [I-449]
20 | > 1000 | > 1000 | CN(CCOCCOCCOCCNc1cccc2c1C(=O)N(C1CCC(=O)NC1=O)C2=O)C(=O)c1nn(C)cc1NC(=O)c1coc(-c2ccnc(NCC(F)(F)F)c2)n1 (stereo not drawn) [I-456]
21 | < 50 | < 50 | Cn1c(=O)n(C2CCC(=O)NC2=O)c2ccc(CCCOCCCNC(=O)c3ccc(-n4cc(NC(=O)c5coc(-c6ccnc(NCC7CC7)c6)n5)c(C(F)F)n4)cc3)cc21 (stereo not drawn) [I-459]
22 | < 50 | < 50 | Cn1c(=O)n(C2CCC(=O)NC2=O)c2cccc(CCCOCCCNC(=O)c3ccc(-n4cc(NC(=O)c5coc(-c6ccnc(NCC7CC7)c6)n5)c(C(F)F)n4)cc3)c21 (stereo not drawn) [I-460]
23 | > 1000 |  | Cn1cc(NC(=O)c2cnn3ccc(N4CCN(C(=O)COCCOCCCc5ccc6c(c5)n(C)c(=O)n6C5CCC(=O)NC5=O)CC4)nc23)c(C(F)F)n1 (stereo not drawn) [I-469]
24 | > 1000 |  | Cn1cc(NC(=O)c2cnn3ccc(N4CCNCC4)nc23)c(C(=O)NCCOCCOCCOCCNc2cccc3c2C(=O)N(C2CCC(=O)NC2=O)C3=O)n1 (stereo not drawn) [I-471]
25 | 50 to 100 |  | CN1CCN(C(=O)c2nn(-c3ccc(C(=O)NCCCCOCCCCc4ccc5c(c4)n(C)c(=O)n5C4CCC(=O)NC4=O)cc3)cc2NC(=O)c2coc(-c3ccnc(NCC(F)(F)F)c3)n2)CC1 (stereo not drawn) [I-481]
26 | 100 to 500 |  | CN(C)CCNC(=O)c1nn(-c2ccc(C(=O)NCCCCOCCCCc3ccc4c(c3)n(C)c(=O)n4C3CCC(=O)NC3=O)cc2)cc1NC(=O)c1coc(-c2ccnc(NCC(F)(F)F)c2)n1 (stereo not drawn) [I-482]
27 | > 1000 |  | Cc1ncsc1-c1ccc(CNC(=O)[C@@H]2C[C@@H](O)CN2C(=O)[C@@H](NC(=O)CCCCCCCCCCC(=O)N2CCN(c3ccn4ncc(C(=O)Nc5cn(C)nc5C(F)F)c4n3)CC2)C(C)(C)C)cc1 [I-483]
28 | 500 to 1000 |  | CN1C(=O)CCC(n2c(=O)n(C)c3c(CCCOCCOCCNC(=O)c4ccc(-n5cc(NC(=O)c6coc(-c7ccnc(NCC8CC8)c7)n6)c(C(F)F)n5)cc4)cccc32)C1=O (stereo not drawn) [I-515]
29 | < 50 |  | Cn1c(=O)n(C2CCC(=O)NC2=O)c2ccc(CCCOCCNCc3ccc(-n4cc(NC(=O)c5coc(-c6ccnc(NCC7CC7)c6)n5)c(C(F)F)n4)cc3)cc21 (stereo not drawn) [I-531]
30 | 500 to 1000 |  | Cn1c(=O)n(C2CCC(=O)NC2=O)c2cccc(CCCOCCNCc3ccc(-n4cc(NC(=O)c5coc(-c6ccnc(NCC(F)(F)F)c6)n5)c(C(F)F)n4)cc3)c21 (stereo not drawn) [I-533]
31 | < 50 |  | Cn1c(=O)n(C2CCC(=O)NC2=O)c2ccc(CCCC(C)(O)CCCNCc3ccc(-n4cc(NC(=O)c5coc(-c6ccnc(NCC7CC7)c6)n5)c(C(F)F)n4)cc3)cc21 (stereo not drawn) [I-540]
32 | 100 to 500 |  | Cn1c(=O)n(C2CCC(=O)NC2=O)c2ccc(CCCN3CCO[C@@H](CCNCc4ccc(-n5cc(NC(=O)c6coc(-c7ccnc(NCC(F)(F)F)c7)n6)c(C(N)=O)n5)cc4)C3)cc21 (stereo partly drawn) [I-575]
33 | 500 to 1000 |  | CN(CCCCOCCCCc1ccc2c(c1)n(C)c(=O)n2C1CCC(=O)NC1=O)Cc1ccc(-n2cc(NC(=O)c3coc(-c4ccnc(NCC(F)(F)F)c4)n3)c(C(N)=O)n2)cc1 (stereo not drawn) [I-578]
34 | 100 to 500 |  | O=C1CCC(N2C[C@H](c3cccc(C#CCCOCCCNCc4ccc(-n5cc(NC(=O)c6coc(-c7ccnc(NCC8CC8)c7)n6)c(C(F)F)n5)cc4)c3)OC2=O)C(=O)N1 (stereo partly drawn) [I-581]
35 | < 50 |  | Cn1c(=O)n(C2CCC(=O)NC2=O)c2ccc(C#CCCN3CCC(CNCc4ccc(-n5cc(NC(=O)c6coc(-c7ccnc(NCC8CC8)c7)n6)c(C(F)F)n5)cc4)CC3)cc21 (stereo not drawn) [I-582]
36 | 50 to 100 |  | O=C1CCC(n2c3ccc(NCCOCCOCCNCc4ccc(-n5cc(NC(=O)c6coc(-c7ccnc(NCC8CC8)c7)n6)c(C(F)F)n5)cc4)cc3c3cccnc32)C(=O)N1 (stereo not drawn) [I-595]
37 | 100 to 500 |  | COCCOCCNCc1ccc(-n2cc(NC(=O)c3coc(-c4ccnc(NCC(F)(F)F)c4)n3)c(C(N)=O)n2)cc1 [I-597]
38 | < 50 |  | CN(Cc1ccc(-n2cc(NC(=O)c3coc(-c4ccnc(NCC5CC5)c4)n3)c(C(F)F)n2)cc1)C[C@H]1CN(CCCc2ccc3c(c2)n(C)c(=O)n3C2CCC(=O)NC2=O)CCO1 (stereo partly drawn) [I-598]
39 | 500 to 1000 |  | Cn1c(=O)n(C2CCC(=O)NC2=O)c2ccc(CCCN3CCO[C@@H](CNCc4ccc(-n5cc(NC(=O)c6cnn7ccc(N8CCNCC8)nc67)c(C(F)F)n5)cc4)C3)cc21 (stereo partly drawn) [I-617]
